According to patent US9090628B2, “Benzoxazepin compounds selective for PI3K P110 delta and methods of use” (GENENTECH, INC., priority 2011, dated 2015):

Experiments:
p110 delta = p110 delta (Homo sapiens (Human), UniProt O00329); test: PI3K isoform inhibition assay, p110 delta (fluorescence polarization displacement); type: biochemical
Description: (§1) PI3K enzymatic activity was assayed by measuring the amount of product phosphatidylinositol 3,4,5-phosphate (PIP3) formed from substrate 4,5 phosphatidylinositol 4,5-phosphate (PIP2) using a fluorescence polarization displacement assay. The decrease in fluorescence polarization of a fluorescent PIP3 probe is measured as it is displaced from a PIP3-binding protein GRP-1 detector by PI3K-catalyzed product. […] The kinase reactions were initiated by the addition of 40 ng/mL p110α/p85α, 300 ng/mL p110β/p85α, 40 ng/mL p110γ, or 40 ng/mL p110δ/p85α (Upstate Group, Millipore; Dundee, UK), and 10 μM PIP2 (Echelon Biosciences) to the wells. […] After 60 minutes of incubation at room temperature to allow equilibration of labeled and unlabeled PIP3 binding, the parallel and perpendicular components of the fluorescence emissions from each sample were measured at an excitation wavelength of 530 nm and an emission wavelength of 590 nm using an Envision fluorescent plate reader with a rhodamine filter (PerkinElmer Life and Analytical Sciences; Wellesley, Mass.). The assay is capable of detecting 0.1-2.0 μM PIP3 product. The IC50 values were obtained by fitting the dose-dependent inhibition data to a 4-parameter equation using Assay Explorer software (MDL, San Ramon, Calif.).
The Formula I compound was serially diluted in 100% DMSO. The kinase reaction was incubated for 1 h at room temperature, and the reaction was terminated by the addition of PBS. IC50 values were subsequently determined using sigmoidal dose-response curve fit (variable slope).
(§2) The four Class I PI 3-kinases are cloned into baculovirus vectors as follows: […]

p110 alpha = p110 alpha (Homo sapiens (Human), UniProt P42336); test: PI3K isoform inhibition assay, p110 alpha (for alpha/delta selectivity); settings: ratio of biochemical IC50 values
Description: as §1
The same protocol may be used to establish IC50 values for p110α (alpha) PI3K binding.
as §2

Chain of p110 delta (O00329 whole entry, canonical isoform): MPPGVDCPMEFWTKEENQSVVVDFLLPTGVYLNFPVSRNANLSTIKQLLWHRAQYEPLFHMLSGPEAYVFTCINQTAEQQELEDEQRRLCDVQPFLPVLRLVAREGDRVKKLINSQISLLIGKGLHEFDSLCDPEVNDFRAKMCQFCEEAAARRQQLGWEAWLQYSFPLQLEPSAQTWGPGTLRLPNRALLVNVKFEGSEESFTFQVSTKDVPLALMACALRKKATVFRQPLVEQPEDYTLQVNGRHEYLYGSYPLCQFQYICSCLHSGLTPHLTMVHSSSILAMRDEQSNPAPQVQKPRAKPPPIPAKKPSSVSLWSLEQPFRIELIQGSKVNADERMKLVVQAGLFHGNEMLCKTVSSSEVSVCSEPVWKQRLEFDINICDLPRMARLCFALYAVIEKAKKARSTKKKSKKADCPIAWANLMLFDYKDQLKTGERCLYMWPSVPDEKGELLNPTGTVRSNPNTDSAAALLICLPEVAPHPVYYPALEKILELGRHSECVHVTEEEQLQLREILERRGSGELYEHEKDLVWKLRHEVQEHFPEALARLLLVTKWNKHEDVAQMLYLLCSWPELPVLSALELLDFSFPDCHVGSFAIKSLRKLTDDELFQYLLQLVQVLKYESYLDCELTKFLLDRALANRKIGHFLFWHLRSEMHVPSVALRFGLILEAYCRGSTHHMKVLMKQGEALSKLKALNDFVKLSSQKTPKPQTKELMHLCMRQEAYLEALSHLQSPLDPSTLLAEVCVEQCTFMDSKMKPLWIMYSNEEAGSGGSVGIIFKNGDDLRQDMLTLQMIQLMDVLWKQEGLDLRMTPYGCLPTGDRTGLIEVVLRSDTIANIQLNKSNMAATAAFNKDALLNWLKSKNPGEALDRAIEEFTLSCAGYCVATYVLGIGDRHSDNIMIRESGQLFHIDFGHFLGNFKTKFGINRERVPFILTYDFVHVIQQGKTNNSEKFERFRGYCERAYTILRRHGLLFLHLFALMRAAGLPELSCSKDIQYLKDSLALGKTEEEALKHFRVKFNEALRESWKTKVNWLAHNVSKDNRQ
Chain of p110 delta (P27986 whole entry partner, canonical isoform): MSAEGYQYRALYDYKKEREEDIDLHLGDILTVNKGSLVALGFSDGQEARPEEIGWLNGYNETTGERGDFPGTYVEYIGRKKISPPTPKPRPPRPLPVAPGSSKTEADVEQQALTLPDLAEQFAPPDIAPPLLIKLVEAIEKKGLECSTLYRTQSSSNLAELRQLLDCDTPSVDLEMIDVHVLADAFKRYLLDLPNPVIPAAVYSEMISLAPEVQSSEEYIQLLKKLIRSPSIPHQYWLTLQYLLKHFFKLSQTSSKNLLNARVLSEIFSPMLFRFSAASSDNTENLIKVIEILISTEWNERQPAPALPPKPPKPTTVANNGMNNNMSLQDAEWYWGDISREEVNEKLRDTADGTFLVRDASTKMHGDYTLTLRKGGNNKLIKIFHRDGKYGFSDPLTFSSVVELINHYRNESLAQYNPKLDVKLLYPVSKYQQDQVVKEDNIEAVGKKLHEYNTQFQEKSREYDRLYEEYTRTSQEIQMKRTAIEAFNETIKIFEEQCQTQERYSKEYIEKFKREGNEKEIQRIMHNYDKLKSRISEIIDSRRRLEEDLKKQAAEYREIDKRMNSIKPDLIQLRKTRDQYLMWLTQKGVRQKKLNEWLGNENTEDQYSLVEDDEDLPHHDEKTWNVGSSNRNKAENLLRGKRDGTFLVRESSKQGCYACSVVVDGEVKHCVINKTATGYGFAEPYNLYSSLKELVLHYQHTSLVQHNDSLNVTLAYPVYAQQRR
Chain of p110 alpha (P42336 whole entry, canonical isoform): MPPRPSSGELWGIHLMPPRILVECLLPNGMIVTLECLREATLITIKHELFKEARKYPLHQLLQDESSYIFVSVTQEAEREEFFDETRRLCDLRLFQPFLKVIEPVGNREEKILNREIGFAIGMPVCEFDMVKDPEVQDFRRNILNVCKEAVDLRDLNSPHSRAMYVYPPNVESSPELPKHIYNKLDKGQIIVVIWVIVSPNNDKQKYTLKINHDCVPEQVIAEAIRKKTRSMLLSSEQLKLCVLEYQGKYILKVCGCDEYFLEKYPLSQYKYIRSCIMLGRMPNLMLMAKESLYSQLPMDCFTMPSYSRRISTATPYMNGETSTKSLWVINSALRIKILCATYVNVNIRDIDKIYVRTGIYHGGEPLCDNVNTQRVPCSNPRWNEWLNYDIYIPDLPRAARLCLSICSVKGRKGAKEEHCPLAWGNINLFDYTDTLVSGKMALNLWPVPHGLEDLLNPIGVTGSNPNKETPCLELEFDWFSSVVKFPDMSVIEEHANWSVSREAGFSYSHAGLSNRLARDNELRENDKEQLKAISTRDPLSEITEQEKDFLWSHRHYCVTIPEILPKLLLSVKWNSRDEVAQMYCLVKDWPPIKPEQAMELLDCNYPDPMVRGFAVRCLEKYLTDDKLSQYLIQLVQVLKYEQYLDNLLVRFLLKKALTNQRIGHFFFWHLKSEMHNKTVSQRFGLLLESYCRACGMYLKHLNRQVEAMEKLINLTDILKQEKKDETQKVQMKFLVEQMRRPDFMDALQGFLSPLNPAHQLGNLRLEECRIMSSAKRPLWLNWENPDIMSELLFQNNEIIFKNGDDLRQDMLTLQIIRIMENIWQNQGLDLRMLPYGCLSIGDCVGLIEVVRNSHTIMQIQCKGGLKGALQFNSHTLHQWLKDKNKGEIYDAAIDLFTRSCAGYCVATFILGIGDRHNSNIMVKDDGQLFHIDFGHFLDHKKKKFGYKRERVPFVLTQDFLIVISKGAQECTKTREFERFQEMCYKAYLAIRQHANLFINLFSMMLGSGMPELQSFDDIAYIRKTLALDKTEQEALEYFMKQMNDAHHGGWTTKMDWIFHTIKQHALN
Chain of p110 alpha (P27986 whole entry partner, canonical isoform): as the sequence (P27986 whole entry partner, canonical isoform) above

Row | IC50 (p110 delta) [nM] | IC50 p110 alpha/IC50 p110 delta (p110 alpha) | Structure (SMILES)
1 | 1.18 | 12.4 | Cc1nc(-c2cn3c(n2)-c2ccc(N4CCCC4C4CCN(S(C)(=O)=O)CC4)cc2OCC3)n(C(C)C)n1 (centres unmarked) [Example 306, 2-(2-isopropyl-5-methyl-1,2,4-triazol-3-yl)-9-[2-(1-methylsulfonyl-4-piperidyl)pyrrolidin-1-yl]-5,6-dihydroimidazo[1,2-d][1,4]benzoxazepine]
2 | 5.68 | 31.9 | Cc1nc(-c2cn3c(n2)-c2ccc(N4CCCC4C4CCCN(C)C4)cc2OCC3)n(C(C)C)n1 (centres unmarked) [Example 322, 2-(2-isopropyl-5-methyl-1,2,4-triazol-3-yl)-9-[2-(1-methyl-3-piperidyl)pyrrolidin-1-yl]-5,6-dihydroimidazo[1,2-d][1,4]benzoxazepine]
3 | 0.992 | 18 | Cc1nc(-c2cn3c(n2)-c2ccc(-c4cnn(C)c4C4CN(C(C)C)CCO4)cc2OCC3)n(C(C)C)n1 (centres unmarked) [Example 372, 2-(2-isopropyl-5-methyl-1,2,4-triazol-3-yl)-9-[5-(4-isopropylmorpholin-2-yl)-1-methyl-pyrazol-4-yl]-5,6-dihydroimidazo[1,2-d][1,4]benzoxazepine]
4 | 17.3 | 10 | Cc1cc2c(cc1-c1ccnn1C1CCN(C)CC1)OCCn1cc(-c3ncnn3C(C)C)nc1-2 [Example 264, 2-(1-isopropyl-1H-1,2,4-triazol-5-yl)-10-methyl-9-(1-(1-methylpiperidin-4-yl)-1H-pyrazol-5-yl)-5,6-dihydrobenzo[f]imidazo[1,2-d][1,4]oxazepine]
5 | 0.852 | 13.1 | Cc1nc(-c2cn3c(n2)-c2ccc(-c4cnn(C)c4C4CCCCN4CC(C)(C)O)cc2OCC3)n(C(C)C)n1 (centres unmarked) [Example 289, 1-[2-[4-[2-(2-isopropyl-5-methyl-1,2,4-triazol-3-yl)-5,6-dihydroimidazo[1,2-d][1,4]benzoxazepin-9-yl]-2-methyl-pyrazol-3-yl]-1-piperidyl]-2-methyl-propan-2-ol]
6 | 0.52 | 36.4 | CCN1CCC(C2CCCN2c2ccc3c(c2)OCCn2cc(-c4nc(C)nn4C(C)C)nc2-3)CC1 (centres unmarked) [Example 304, 9-[2-(1-ethyl-4-piperidyl)pyrrolidin-1-yl]-2-(2-isopropyl-5-methyl-1,2,4-triazol-3-yl)-5,6-dihydroimidazo[1,2-d][1,4]benzoxazepine]
7 | 4.85 | 17.9 | CCN1CCN(C(C)c2cc3c(cc2F)OCCn2cc(-c4nc(C)nn4C(C)C)nc2-3)CC1 (centres unmarked) [Example 374, 10-[1-(4-ethylpiperazin-1-yl)ethyl]-9-fluoro-2-(2-isopropyl-5-methyl-1,2,4-triazol-3-yl)-5,6-dihydroimidazo[1,2-d][1,4]benzoxazepine]
8 | 2.52 | 22.1 | Cc1nc(-c2cn3c(n2)-c2ccc(N4CCCC4C4CCCN(C)C4)cc2OCC3)n(C(C)C)n1 (centres unmarked) [Example 321, 2-(2-isopropyl-5-methyl-1,2,4-triazol-3-yl)-9-[2-(1-methyl-3-piperidyl)pyrrolidin-1-yl]-5,6-dihydroimidazo[1,2-d][1,4]benzoxazepine]
9 | 26.8 | 27 | Cc1nc(-c2cn3c(n2)-c2cc([C@H](C)N4CCN(CC(C)(C)O)CC4)c(F)cc2OCC3)n(C(C)C)n1 [Example 336, (S)-1-(4-(1-(9-fluoro-2-(1-isopropyl-3-methyl-1H-1,2,4-triazol-5-yl)-5,6-dihydrobenzo[f]imidazo[1,2-d][1,4]oxazepin-10-yl)ethyl)piperazin-1-yl)-2-methylpropan-2-ol]
10 | 0.288 | 23 | Cc1nc(-c2cn3c(n2)-c2ccc(N4CCCC4CN(C)C)cc2OCC3)n(C(C)C)n1 (centres unmarked) [Example 346, 1-[1-[2-(2-isopropyl-5-methyl-1,2,4-triazol-3-yl)-5,6-dihydroimidazo[1,2-d][1,4]benzoxazepin-9-yl]pyrrolidin-2-yl]-N,N-dimethyl-methanamine]
11 | 11.5 | 18 | Cc1nc(-c2cn3c(n2)-c2cc(-c4ccnn4[C@H]4CCCN(C5COC5)C4)c(F)cc2OCC3)n(C(C)C)n1 [Example 352, (S)-9-fluoro-2-(1-isopropyl-3-methyl-1H-1,2,4-triazol-5-yl)-10-(1-(1-(oxetan-3-yl)piperidin-3-yl)-1H-pyrazol-5-yl)-5,6-dihydrobenzo[f]imidazo[1,2-d][1,4]oxazepine]
12 | 2.73 | 69.9 | Cc1nc(-c2cn3c(n2)-c2cc(C(=O)N4CCN(C(C)(C)C)CC4)c(F)cc2OCC3)n(C(C)C)n1 [Example 273, (4-tert-butylpiperazin-1-yl)-[9-fluoro-2-(2-isopropyl-5-methyl-1,2,4-triazol-3-yl)-5,6-dihydroimidazo[1,2-d][1,4]benzoxazepin-10-yl]methanone]
13 | 1.06 | 31.5 | Cc1nc(-c2cn3c(n2)-c2ccc(-c4ccnn4C4CCN(C(C)C)CC4)cc2OCC3)n(C(C)C)n1 [Example 296, 2-(2-isopropyl-5-methyl-1,2,4-triazol-3-yl)-9-[2-(1-isopropyl-4-piperidyl)pyrazol-3-yl]-5,6-dihydroimidazo[1,2-d][1,4]benzoxazepine]
14 | 0.638 | 14.4 | Cc1nc(-c2cn3c(n2)-c2ccc(OC4(C)CCN(C(C)C)C4)cc2OCC3)n(C(C)C)n1 (centres unmarked) [Example 261, 2-(1-isopropyl-3-methyl-1H-1,2,4-triazol-5-yl)-9-(1-isopropyl-3-methylpyrrolidin-3-yloxy)-5,6-dihydrobenzo[f]imidazo[1,2-d][1,4]oxazepine]
15 | 2.21 | 16.6 | Cc1nc(-c2cn3c(n2)-c2cc(-c4ccnn4[C@@H]4CCCN(C5COC5)C4)c(F)cc2OCC3)n(C(C)C)n1 [Example 351, (R)-9-fluoro-2-(1-isopropyl-3-methyl-1H-1,2,4-triazol-5-yl)-10-(1-(1-(oxetan-3-yl)piperidin-3-yl)-1H-pyrazol-5-yl)-5,6-dihydrobenzo[f]imidazo[1,2-d][1,4]oxazepine]
16 | 6.2 | 17 | Cc1nc(-c2cn3c(n2)-c2ccc(OC4(c5ccccc5)CN(C(C)C)C4)cc2OCC3)n(C(C)C)n1 [Example 275, 2-(2-isopropyl-5-methyl-1,2,4-triazol-3-yl)-9-(1-isopropyl-3-phenyl-azetidin-3-yl)oxy-5,6-dihydroimidazo[1,2-d][1,4]benzoxazepine]
17 | 2.81 | 26.3 | Cc1nc(-c2cn3c(n2)-c2ccc(N4CCCC4C4CCCN(C)C4)cc2OCC3)n(C(C)C)n1 (centres unmarked) [Example 319, 2-(2-isopropyl-5-methyl-1,2,4-triazol-3-yl)-9-[2-(1-methyl-3-piperidyl)pyrrolidin-1-yl]-5,6-dihydroimidazo[1,2-d][1,4]benzoxazepine]
18 | 1.23 | 66 | Cc1nc(-c2cn3c(n2)-c2ccc(-c4cnn(C)c4C4CC(N(C)C(C)C)CCO4)cc2OCC3)n(C(C)C)n1 (centres unmarked) [Example 344, N-isopropyl-2-[4-[2-(2-isopropyl-5-methyl-1,2,4-triazol-3-yl)-5,6-dihydroimidazo[1,2-d][1,4]benzoxazepin-9-yl]-2-methyl-pyrazol-3-yl]-N-methyl-tetrahydropyran-4-amine]
19 | 0.571 | 16.1 | Cc1nc(-c2cn3c(n2)-c2cnc(-c4cnn(C)c4C4CCCN(C(C)C)C4)cc2OCC3)n(C(C)C)n1 (centres unmarked) [Example 370, 2-(1-isopropyl-3-methyl-1H-1,2,4-triazol-5-yl)-9-(5-(1-isopropylpiperidin-3-yl)-1-methyl-1H-pyrazol-4-yl)-5,6-dihydroimidazo[1,2-d]pyrido[3,4-f][1,4]oxazepine]
20 | 0.048 | 48.8 | Cc1nc(-c2cn3c(n2)-c2ccc(-c4cnn(C)c4N4CCN(C)[C@H](C(C)C)C4)cc2OCC3)n(C(C)C)n1 [Example 367, 9-[5-[(3R)-3-isopropyl-4-methyl-piperazin-1-yl]-1-methyl-pyrazol-4-yl]-2-(2-isopropyl-5-methyl-1,2,4-triazol-3-yl)-5,6-dihydroimidazo[1,2-d][1,4]benzoxazepine]

Row | Structure (SMILES) | IC50 (p110 delta) [nM] | IC50 p110 alpha/IC50 p110 delta (p110 alpha)
21 | Cc1nc(-c2cn3c(n2)-c2cc([C@@H](C)N4CCN(C(C)(C)C)CC4)c(F)cc2OCC3)n(C(C)C)n1 [Example 294, (R)-10-(1-(4-tert-butylpiperazin-1-yl)ethyl)-9-fluoro-2-(1-isopropyl-3-methyl-1H-1,2,4-triazol-5-yl)-5,6-dihydrobenzo[f]imidazo[1,2-d][1,4]oxazepine] | 0.777 | 479
22 | Cc1nc(-c2cn3c(n2)-c2cc([C@@H](C)N4CCN(C(C)(C)C)CC4)ncc2OCC3)n(C(C)C)n1 [Example 305, (R)-10-(1-(4-tert-butylpiperazin-1-yl)ethyl)-2-(1-isopropyl-3-methyl-1H-1,2,4-triazol-5-yl)-5,6-dihydroimidazo[1,2-d]pyrido[4,3-f][1,4]oxazepine] | 2.81 | 28.6
